{"source": "patent US20250009734A1", "about": "“METHODS OF INHIBITING FOXO1 FOR TREATMENT OF LYMPHATIC DISORDERS” (UNIVERSITY OF SOUTH FLORIDA, priority 2023, published 2025)", "key": {"[1]": {"tested_on": "human dermal lymphatic endothelial cells (hdLECs)", "assay": "qRT-PCR of valve and flow responsive gene mRNA in cultured hdLECs", "type": "cell-based", "procedure": "FIG. 1. AS1842856 (AS) has a time and concentration dependent effect on valve genes expression. Human dermal lymphatic endothelial cells (hdLECs) were cultured under static conditions and treated for the indicated time (24, 48, and 72 hours) and concentrations from left to right: DMSO 1 μM, AS 0.1 μM, AS 0.5 μM, and AS 1 μM. Afterwards, mRNA of indicated genes was extracted, reverse transcribe and quantified by qRT-PCR analysis. All values are mean±SEM. n=3 experiment repeats; ns=not significant; *p≤0.05, **p≤0.01.\nTo investigate this, hdLECs were treated with three distinct concentrations of AS1842856-0.1 μM, 0.5 μM, and 1 μM for 24 hours (hrs), 48 hrs, and 72 hrs. DMSO was used as the vehicle control. The medium was changed every day with freshly made drug. Thereafter, the expression levels of valve genes and flow responsive genes, including FOXC2, GATA2, PROX1, KLF4, ITGA9, GJA4, NOS3, and CTNNB1, were determined using quantitative RT-qPCR. […] Deletion of any of these three genes leads to the absence of lymphatic valve formation during embryonic development (Petrova et al., 2004, Kazenwadel et al., 2015, Cha et al., 2016). […] However, the expression of CTNNB1 was not altered.\nHuman dermal lymphatic endothelial cells (hdLECs) purchased from Promocell (C-12216) were cultured in EBM-V2 (PromoCell, C-22121) media on fibronectin (20 μl/well) coated 6-well plates. hdLECs were treated with 4 different conditions: DMSO (1 μM), AS1842856 (EMD Millipore Corporation) 0.1 μM, 0.5 μM and 1 μM for 3 different time points: 24, 48, and 72 hours for qRT-PCR. For western blot, hdLECs were treated with 0.5 μM AS1842856 for 48 hours.\nThe RNeasy Plus Mini Kit (Qiagen) was used to isolate total RNA from hdLECs per the manufacturers' instructions. cDNA synthesis was performed using the AdvantageR RT-for-PCR kit (Takara) according to the manufacturer's guidelines. qPCR was performed in a QuantStudio 6 realtime PCR system (Applied Biosystems) with TaqmanR probes (Applied Biosystems, Thermofisher) and the Cq value of each gene was normalized to the that of GAPDH."}, "[2]": {"target": "FOXO3 (Homo sapiens, UniProt O43524)", "sequence (O43524 whole entry, species assumed)": "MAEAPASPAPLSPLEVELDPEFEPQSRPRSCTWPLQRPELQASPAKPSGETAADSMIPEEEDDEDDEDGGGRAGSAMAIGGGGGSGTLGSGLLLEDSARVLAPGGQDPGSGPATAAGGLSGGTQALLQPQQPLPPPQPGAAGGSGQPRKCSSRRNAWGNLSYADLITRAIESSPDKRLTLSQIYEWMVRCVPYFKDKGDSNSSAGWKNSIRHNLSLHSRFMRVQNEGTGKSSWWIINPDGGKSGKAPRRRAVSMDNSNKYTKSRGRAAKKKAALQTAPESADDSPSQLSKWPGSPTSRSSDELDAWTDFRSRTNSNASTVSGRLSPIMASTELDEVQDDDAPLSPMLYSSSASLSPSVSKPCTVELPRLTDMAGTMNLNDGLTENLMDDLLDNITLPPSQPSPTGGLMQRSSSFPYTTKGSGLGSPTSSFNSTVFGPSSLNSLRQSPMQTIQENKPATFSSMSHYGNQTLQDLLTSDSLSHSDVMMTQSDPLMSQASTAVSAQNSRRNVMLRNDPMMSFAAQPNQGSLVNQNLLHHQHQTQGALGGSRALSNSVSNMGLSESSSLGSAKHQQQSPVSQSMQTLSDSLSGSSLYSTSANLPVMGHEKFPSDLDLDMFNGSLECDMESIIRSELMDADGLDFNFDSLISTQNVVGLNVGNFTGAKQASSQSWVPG", "conditions": "Nagashima et al., 2010; cited from earlier work"}}, "data": [{"smiles": "CCn1cc(C(=O)O)c(=O)c2c(N)c(F)c(NC3CCCCC3)cc21", "note": "[AS1842856]", "values": [{"measurement": "increased expression of FOXC2, GATA2, KLF4, ITGA9, GJA4, NOS3, and PROX1 (comparison of treatment conditions)", "setting": "[1]; 0.5 μM for 48 hrs", "result": "best results"}, {"measurement": "GATA2 mRNA expression level", "setting": "[1]; 24 hrs or 72 hrs AS treatment vs DMSO", "result": "not with 24 hrs or 72 hrs treatment"}, {"measurement": "CTNNB1 mRNA expression", "setting": "[1]; 48 hrs AS treatment vs DMSO", "result": "not altered"}, {"measurement": "FOXC2 mRNA expression level", "setting": "[1]; 48 hrs AS treatment vs DMSO", "result": "significantly upregulated"}, {"measurement": "GATA2 mRNA expression level", "setting": "[1]; 48 hrs AS treatment vs DMSO", "result": "significantly upregulated"}, {"measurement": "GJA4 mRNA expression level", "setting": "[1]; 48 hrs AS treatment vs DMSO", "result": "significantly higher"}, {"measurement": "ITGA9 mRNA expression level", "setting": "[1]; 48 hrs AS treatment vs DMSO", "result": "significantly higher"}, {"measurement": "KLF4 mRNA expression level", "setting": "[1]; 48 hrs AS treatment vs DMSO", "result": "significantly increased"}, {"measurement": "NOS3 mRNA expression", "setting": "[1]; 48 hrs AS treatment vs DMSO", "result": "significantly increased"}, {"measurement": "PROX1 mRNA expression level", "setting": "[1]; 48 hrs AS treatment vs DMSO", "result": "significantly increased"}, {"measurement": "FOXC2 mRNA expression level", "setting": "[1]; 48 hrs, 0.1 μM", "result": "trend of increase"}, {"measurement": "GATA2 mRNA expression level", "setting": "[1]; 48 hrs, 0.1 μM", "result": "trend of increase"}, {"measurement": "GJA4 mRNA expression level", "setting": "[1]; 48 hrs, 0.1 μM and 0.5 μM", "result": "upregulated"}, {"measurement": "ITGA9 mRNA expression level", "setting": "[1]; 48 hrs, 0.1 μM and 0.5 μM", "result": "upregulated"}, {"measurement": "NOS3 mRNA expression level", "setting": "[1]; 48 hrs, 0.1 μM and 0.5 μM", "result": "upregulated"}, {"measurement": "PROX1 mRNA expression level", "setting": "[1]; 48 hrs, 0.1 μM and 0.5 μM", "result": "upregulated"}, {"measurement": "FOXC2 mRNA expression", "setting": "[1]; 48 hrs, 0.5 μM and 1 μM", "result": "significant increase"}, {"measurement": "GATA2 mRNA expression", "setting": "[1]; 48 hrs, 0.5 μM and 1 μM", "result": "significant increase"}, {"measurement": "GJA4 mRNA expression level", "setting": "[1]; 48 hrs, 1 μM", "result": "not under 1 μM"}, {"measurement": "ITGA9 mRNA expression level", "setting": "[1]; 48 hrs, 1 μM", "result": "not under 1 μM"}, {"measurement": "NOS3 mRNA expression level", "setting": "[1]; 48 hrs, 1 μM", "result": "not under 1 μM"}, {"measurement": "PROX1 mRNA expression level", "setting": "[1]; 48 hrs, 1 μM", "result": "not under 1 μM"}, {"measurement": "CTNNB1 mRNA expression", "setting": "[1]; 48 hrs, 0.1, 0.5 and 1 μM", "result": "None of the concentrations induced significant upregulation"}, {"measurement": "FOXO1 mRNA expression", "setting": "[1]; 48 hrs, 0.1, 0.5 and 1 μM", "result": "None of the concentrations induced significant upregulation"}, {"measurement": "KLF4 mRNA expression", "setting": "[1]; 48 hrs, all three concentrations (0.1, 0.5, 1 μM)", "result": "increased"}, {"measurement": "FOXO1 mRNA expression level", "setting": "[1]; AS treatment vs DMSO", "result": "not altered"}, {"measurement": "effect on inhibiting the activity of FOXO3", "setting": "[2]", "result": "minimal effect"}]}]}
